± gives the expanded uncertainty stated by the source.
Details: Liquid; Gas Chromatography

SMILES | Normal boiling temperature
CCCCCOP(=O)(CCCC)OCCCCC [dipentyl butylphosphonate] | 319.84 ± 2 °C
CCCCCCCCP(=O)(OCCCC)OCCCC [dibutyl octylphosphonate] | 332.96 ± 2 °C
CCCCCCP(=O)(OCCCCC)OCCCCC [dipentyl hexylphosphonate] | 344.43 ± 2 °C
CCCCCP(=O)(OCCC(C)C)OCCC(C)C [diisopentyl pentylphosphonate] | 321.52 ± 2 °C
CCCCCP(=O)(OCCCC)OCCCC [dibutyl pentylphosphonate] | 306.70 ± 2 °C
CCCCCOP(=O)(CCCCC)OCCCCC [dipentyl pentylphosphonate] | 332.64 ± 2 °C
CCCCCCP(=O)(OCCCC)OCCCC [dibutyl hexylphosphonate] | 319.92 ± 2 °C
CCCCP(=O)(OCCC(C)C)OCCC(C)C [diisopentyl butylphosphonate] | 306.90 ± 2 °C
CCCCCCP(=O)(OCCC(C)C)OCCC(C)C [diisopentyl hexylphosphonate] | 332.33 ± 2 °C
CCCCOP(=O)(CCCC)OCCCC [dibutyl butanephosphonate] | 292.92 ± 2 °C

Reference: the NIST ThermoML archive (doi:10.1016/j.tca.2014.11.027)
